Here are results for 1 compound from paper PMC6508865, “Dynamics of thymol dietary supplementation in quail (Coturnix japonica): Linking bioavailability, effects on egg yolk total fatty acids and performance traits” (PLoS ONE, 2019).

For series [1], the system named is female Japanese quail (Coturnix japonica). Put plainly: General welfare quality assessment. In kind it is in vivo. The conditions noted are these: 2, 4, 6.25 g of THY/kg feed. As for the experimental part: A welfare assessment based on observations of physical characteristics was made. Female skin lesions and plumage status were evaluated following a procedure proposed by Pellegrini et al. that is an adapted version of the protocol developed by the Welfare Quality consortium. Briefly, skin lesions, which include wounds that have not healed in the legs, rear end, chest, cloacae and wings were determined using a score scale from 0 to 2, where "0" represents no lesions or scratches, "1" represents at least one lesion < 0.5 cm diameter or less than 3 pecks (punctiform damage ~ 0.1 cm of diameter) or scratches, and "2" reflects one lesion ≥ 0.5 cm of diameter or more than 3 pecks or scratches. Plumage damage was also determined using a score scale from 0 to 2 as follows: "0" represents individuals with no plumage damage or slight wear (only single feathers lacking), "1" represent individuals with one or more body parts that have moderate wear (i.e. damaged feathers worn or deformed) or one or more featherless areas < 1.5 cm in diameter at the larger extent and "2" corresponded to individuals that have at least one featherless area > 1.5 cm in diameter at the largest extent. […]

For series [2] the test system is unchanged. Put plainly: Female performance traits (body weight, feed intake, egg laying, egg physical characteristics). In kind it is in vivo. From the text:
A total of 50 eighty-five days-old female quail of homogeneous body weights (251 ± 1 g; Mean ± SE) and in their egg-laying peak were selected from an initial group of 96 female individuals. All birds continued receiving a basal diet between 85 and 100 days of age and all variables (see below for details) were registered along this period (Pre-supplementation period, Fig 1). From 100 to 128 days of age (S period, Fig 1), females were randomly assigned to either a chronic dietary supplementation with one of 3 THY doses (THY2, THY4 and THY6; 10 females each) or to one of 2 control groups (basal diet, BASAL, and basal diet with vehicle solution, VEHICLE; 10 females each). Once finished the S period, half of the quail were slaughtered for histological analysis (n = 25; Slaughter 1, Fig 1) and the other half were subjected to a pS period of 21 days, during which all females received the BASAL diet (pS, Fig 1). After this period, the remaining 25 animals were also slaughtered for histological analysis (Slaughter 2, Fig 1). In this way, we assessed whether THY induced changes in variables indicative of tissue damage and if so, whether the potential damages could reverse after 3 weeks of supplement withdrawal.
To assess changes in egg yolk total FA composition, egg physical characteristics, laying rate, body weight, feed intake and general welfare, during the S and pS periods, five sampling points were defined (Sample points, Fig 1): one initial sample point (at 0 days of S); three sample points during the S period (at 7, 14 and 28 days of S); and one sample point at the end of the pS period (21 days of pS). It should be noted that for determinations of THY concentration, eggs and quail droppings were collected offset from the other variables measured by 2 days, thus were collected on days 2, 9, 16, and 26 days of S, and 17 days of pS, respectively.
Female performance was evaluated through the measurement of body weight, feed intake, egg laying rate, egg physical characteristics and a general welfare quality assessment. Body weight was measured once a week throughout the experimental period. Daily feed intake (DFI) was estimated as the difference between the amount of feed supplied to each animal (60 g) and the rest that remained in the feeders the next day (g of feed/day/quail). Egg laying was registered daily and the weekly laying rate was calculated as: (number of eggs / 7 days) x 100. Egg weight, quality characteristics (such as intact, membranous, soft shell and broken shell), morphometric characteristics (egg shape index = (egg width / egg length) x 100) and percentage of constituents (egg yolk, albumen and shell) were registered at each sampling point.

Setting [3] is: overall mean over BASAL, VEHICLE and 2, 4, 6.25 g thymol/kg feed diets and five sampling times, no effect of diet.

For the compound `Cc1ccc(C(C)C)c(O)c1` [THY, 2 isopropyl-5-methylphenol], in series [1], the “effect on general well-being” value was “did not affect”. Besides, the “effect on physical egg traits” value in series [2] (2, 4, 6.25 g of THY/kg feed) is listed as “did not affect”. In addition, in series [2] (2, 4, 6.25 g of THY/kg feed vs controls, 28 days S and 21 days pS), the “effect of the diet supplied on performance variables (body weight, feed intake, egg laying, morphometric characteristics and constituents of eggs)” value is reported as “no effects”. Moreover, the Egg shape index in series [2] ((egg width / egg length) x 100, overall mean over BASAL, VEHICLE and 2, 4, 6.25 g thymol/kg feed diets and five sampling times, no effect of diet) was found to be 79.5%. In series [2] (no differences between treatments, all diets), the daily feed intake came to 30.3 ± 1 g/day/animal. In series [2] (setting [3]), this compound returned an Egg albumen of 48.6%, an Egg shell of 14.4%, an Egg weight of 11.3 g and an Egg yolk of 37.0%. Besides, in series [2] (setting [3]), the “Weekly Body Weight per individual” value stood at 254 g and the “Weekly Feed Intake per individual” value is on record as 212 g. Further, in series [2] (overall mean over BASAL, VEHICLE and 2, 4, 6.25 g thymol/kg feed diets, no effect of diet), the “Cumulative number of eggs” value stood at 42.
